≈ marks a conversion by molar mass, not a printed value. Where “and” joins values, the source holds several entries; their conditions need not be identical. Equal entries are not always repeated. Structures can show the parent of a compound that is named as a salt. Where two headings read alike, the source gives them in different places. Peptide text beside a SMILES is read from it. * marks the point of attachment. Lauroyl = CCCCCCCCCCCC(=O)*
Assays:
erythrocytes = test: Hemolytic activity assay; format: cell-based; conditions: rabbit erythrocytes
Method: Fresh rabbit blood was obtained from the Animal Facility of the CID-CSIC (Research and Development Center, Spanish National Research Council, Barcelona, Spain). Sample collection was conducted in strict compliance with the bioethical guidelines established under Spanish legislation. Erythrocytes were isolated by centrifugation (3000 rpm/10 min). The supernatant was discarded, and the erythrocytes were washed three times with PBS (phosphate-buffered saline, pH 7.4) and then resuspended in PBS at a concentration of 8 × 10^9 cells/mL. Subsequently, varying volumes of a concentrated surfactant solution were added to Eppendorf tubes containing 25 μL of erythrocyte suspension. PBS was then added to bring the total volume to 1 mL. The samples were gently shaken for 10 min at room temperature and centrifuged at 10,000 rpm for 5 min. Hemolysis was evaluated by measuring the absorbance of the supernatant at 540 nm and comparing it to that of a 100% hemolysis control (erythrocytes treated with distilled water). The HC50, defined as the surfactant concentration that induces 50% hemolysis, was determined from the concentration–response curves: % hemolysis= Abstest compound/AbsBasal haemolytic activity ×100

[1] = Surface tension, pendant drop tensiometer (cmc, γc); format: physicochemical; conditions: for cmc: from surface tension
Method: Surface tension was measured using a custom-built pendant drop tensiometer, as described in detail in reference. Briefly, a droplet of surfactant solution is formed at the tip of a straight-cut Teflon tube. The image of the droplet is captured using a webcam, and its shape is analyzed by fitting the droplet profile to the Laplace–Young equation [14], To minimize evaporation, all measurements were conducted in a saturated humid atmosphere. The use of this technique is especially well-suited for cationic surfactants because it helps to mitigate complications related to surface adsorption. Critical micelle concentration values (cmc) were determined by finding the intersection of the linear fits before and after the break in the curves.

[2] = test system: Candida parapsilosis ATCC 22019; test: MIC broth microdilution; format: cell-based; conditions: C. parapsilosis; for MIC: Lodderomyces parapsilosis, ATCC22019, read-out: MIC
Method: (§1) The antimicrobial activity of these compounds was assessed against selected yeast and bacterial strains: Candida albicans ATCC 90028 (CA9), Candida rugosa ATCC 10571 (CR), Candida glabrata ATCC 66032 (CG), Candida parapsilosis ATCC 22019 (CP), Candida tropicalis ATCC 7349 (CT), Candida auris ATCC 21092 (CA), and Cyberlindnera jadinii ATCC 60459. Frozen yeast stocks were plated on Sabouraud agar (SBA) and incubated at 30 °C for 24 h. Three to four colonies from each strain were then suspended in RPMI 1640 (Roswell Park Memorial Institute medium, Sigma- Aldrich, Merck, Darmstadt, Germany) to prepare bacterial dispersions of ~1.5 × 10^6 CFU/mL.
(§2) A broth microdilution assay was used to calculate MIC values. Twofold serially diluted compounds in RPMI 1640 medium (from 256 to 2 μg/mL), were dispensed (100 μL per well) into a 96-well plate. Then, 100 μL of a yeast starter culture was added to each well to reach a final inoculum of 7.5 × 10^5 CFU/mL. Wells containing only nutrient broth without the tested surfactant served as growth controls. Microbial growth was assessed by turbidity, which reflects increases in biomass and cell count. […] To confirm the obtained MICs, 20 μL of 0.015% (w/v) resazurin was dispensed to each well and incubated for 3 h at 30 °C. Metabolic activity was evidenced by a color change from blue to pink, thereby confirming the MIC value.

Candida auris ATCC 21092 = test: MIC broth microdilution; format: cell-based; conditions: C. auris; for MIC: Candidozyma auris, ATCC21092, read-out: MIC
Method: as §1, §2

[3] = test system: Candida rugosa ATCC 10571; test: MIC broth microdilution; format: cell-based; conditions: C. rugosa; for MIC: Diutina rugosa, ATCC10571, read-out: MIC
Method: as §1, §2

[4] = test system: Candida albicans ATCC 90028; test: MIC broth microdilution; format: cell-based; conditions: C. albicans; for MIC: Candida albicans, ATCC90028, read-out: MIC
Method: as §1, §2

[5] = test system: Candida tropicalis ATCC 7349; test: MIC broth microdilution; format: cell-based; conditions: C. tropicalis; for MIC: Candida tropicalis, ATCC7349, read-out: MIC
Method: as §1, §2

[6] = test system: Candida glabrata ATCC 66032; test: MIC broth microdilution; format: cell-based; conditions: for MIC: Nakaseomyces glabratus, read-out: MIC
Method: as §1, §2

[7] = test system: Cyberlindnera jadinii ATCC 60459 (C. jardinii); test: MIC broth microdilution; format: cell-based; conditions: for Selectivity Index (HC50/MIC): C. jardini; for MIC: Williopsis jadinii
Method: as §1, §2

Vibrio fischeri = test: Luminescence reduction test; format: cell-based; conditions: Aliivibrio fischeri, 0.25 h; Vibrio fischeri bioluminescence, 15 min of exposure; 95% confidence intervals in parentheses
Method: Ecotoxicological assessment of cationic surfactants was conducted using the Vibrio fischeri luminescent bioassay. This method relies on the measurement of decreased bioluminescent output from marine bacteria following contact with potentially toxic substances. Regression analysis was used to determine the concentration of the compound that caused a 50% reduction (EC50) in the amount of light emitted by the bacteria. The stated toxicity statistics given are based on the bacteria being exposed to the ionic liquid solution for 15 min at 15 °C.

Daphnia magna = test: Acute toxicity, immobilization test; format: in vivo; conditions: Daphnia magna, 48 h
Method: Aquatic toxicity evaluation was performed using Daphnia magna following established protocols. This bioassay method employs laboratory-cultured freshwater microcrustaceans to evaluate surfactant toxicity in aquatic environments. Test organisms were utilized during their initial 24 h life stage to ensure consistency. The endpoint measurement focused on mobility impairment, specifically the loss of swimming capability after gentle stimulation lasting 15 s. Testing conditions included controlled water chemistry parameters: pH maintained at 8.0, calcium-to-magnesium ratio of 4:1, and total hardness of 250 mg/L as CaCO3. All experiments were conducted under dark conditions at 20 °C. The experimental design incorporated ten test concentrations for each surfactant compound, distributed in geometric progression. Each concentration level included 20 Daphnia specimens distributed across four replicate groups of five organisms each. Mobility assessment occurred at 48 h post-exposure, with immobilization percentages plotted against concentration using probability–logarithmic scaling.

[8] = parameters: method as in PMID 36559096; conditions: conductivity values; cited from earlier work
[9] = ATCC66032, 24 h, C. glabrata, RPMI 1640, 24 h, 30 °C
[10] = ATCC66032, C. glabrata, value in parentheses

Structure (SMILES) | HC50 (erythrocytes; 10 min, room temperature) [µg/mL] | HC50 (erythrocytes; value in parentheses) [µM] | γc (surface tension at the cmc) [1] [mNm^−1] | cmc [1] [mM] | Selectivity Index (HC50/MIC) ([2]; Table S1) | MIC ([2]; RPMI 1640, 24 h, 30 °C) [µg/mL] | MIC ([2]; value in parentheses) [µM] | Selectivity Index (HC50/MIC) (Candida auris ATCC 21092; Table S1) | MIC (Candida auris ATCC 21092; RPMI 1640, 24 h, 30 °C) [µg/mL] | MIC (Candida auris ATCC 21092; value in parentheses) [µM] | Selectivity Index (HC50/MIC) ([3]; Table S1) | MIC ([3]; RPMI 1640, 24 h, 30 °C) [µg/mL] | MIC ([3]; value in parentheses) [µM] | MIC ([4]; RPMI 1640, 24 h, 30 °C) [µg/mL] | MIC ([4]; value in parentheses) [µM] | MIC ([5]; RPMI 1640, 24 h, 30 °C) [µg/mL] | MIC ([5]; value in parentheses) [µM] | MIC [6, 9] [µg/mL] | MIC [6, 10] [µM] | cmc Cond [8] [mM] | other results
CCCCCCCCCCCC(=O)NC(CCCNC(=N)N)C(=O)OC (centres unmarked) [C12AM] | 109 ± 0.6 | 270 ± 1.7 | 29.5 ± 1.5 | 1.7 | 7 | 16 | 39 | 0.9 | 128 | 312 | 1.7 | 64 | 156 | 32 | 78 | 8 | 19 | 16 | 39 | 6 | Selectivity Index (HC50/MIC) ([4]; Table S1): 3.4; Selectivity Index (HC50/MIC) ([5]; Table S1): 14; Selectivity Index (HC50/MIC) ([6]; C. glabrata, Table S1): 7; Selectivity Index (HC50/MIC) ([7]; Table S1): 1.7; MIC ([7]; ATCC60459): 156 µM; MIC ([7]; ATCC60459, 24 h): 64 µg/mL; EC50 (Vibrio fischeri): 1.9 µg/mL (≈ 5.13 µM); EC50 (Daphnia magna): 4.4 µg/mL (≈ 11.9 µM)
CCCCCCCCCCCC(=O)NC(Cc1ccccc1)C(=O)NC(CCCNC(=N)N)C(=O)OC (stereo not drawn) [C12PAM] (Lauroyl-Phe-Arg-OMe; configuration not given here) | 23 ± 0.8 | 42 ± 1.5 | 29.5 ± 2.7 | 0.7 | 1.4 | 16 | 29 | 0.7 | 32 | 58 | 6 | 4 | 7 | 16 | 29 | 16 | 29 | 16 | 29 | 1.2 | Selectivity Index (HC50/MIC) ([4]; Table S1): 1.4; Selectivity Index (HC50/MIC) ([5]; Table S1): 1.4; Selectivity Index (HC50/MIC) ([6]; C. glabrata, Table S1): 1.4; Selectivity Index (HC50/MIC) ([7]; Table S1): 0.4; MIC ([7]; ATCC60459): 116 µM; MIC ([7]; ATCC60459, 24 h): 64 µg/mL
CCCCCCCCCCNC(=O)C(CCCNC(=N)N)NC(=O)C(N)Cc1ccccc1 (centres unmarked) [PANHC10] | 215 ± 22 | 404 ± 42 | 30.6 ± 9.7 | 6.7 | – | 64 | 120 | – | 256 | 480 | – | 128 | 240 | 128 | 240 | 128 | 240 | 64 | 120 | 7.2 | Selectivity Index (HC50/MIC) ([2]; Table S2): 3.7; Selectivity Index (HC50/MIC) (Candida auris ATCC 21092; Table S2): 0.8; Selectivity Index (HC50/MIC) ([3]; Table S2): 1.6; Selectivity Index (HC50/MIC) ([4]; Table S2): 1.6; Selectivity Index (HC50/MIC) ([5]; Table S2): 1.6; Selectivity Index (HC50/MIC) ([6]; C. glabrata, Table S2): 3.7; Selectivity Index (HC50/MIC) ([7]; Table S2): 1.6; MIC ([7]; ATCC60459, C. jardinii, RPMI 1640, 24 h, 30 °C, read-out: MIC): 128 µg/mL; MIC ([7]; ATCC60459, C. jardinii, value in parentheses, read-out: MIC): 240 µM; EC50 (Vibrio fischeri): 5.6 µg/mL (≈ 12.2 µM); EC50 (Daphnia magna): 22 µg/mL (≈ 47.8 µM)
CCCCCCCCCCCCNC(=O)C(N)Cc1ccccc1 (centres unmarked) [PNHC12, phenylalanine dodecyl amide hydrochloride] | 20 ± 0.6 | 55 ± 1.7 | 26.6 ± 0.8 | 1.2 | 0.6 | 32 | 88 | 0.6 | 32 | 88 | 0.6 | 32 | 88 | 8 | 22 | 32 | 88 | 32 | 88 | 1.2 | Selectivity Index (HC50/MIC) ([4]; Table S1): 2.5; Selectivity Index (HC50/MIC) ([5]; Table S1): 0.6; Selectivity Index (HC50/MIC) ([6]; C. glabrata, Table S1): 0.6; Selectivity Index (HC50/MIC) ([7]; Table S1): 0.6; MIC ([7]; ATCC60459, 24 h): 32 µg/mL and 88 µM

From article PMC12452389, “Arginine-Derived Cationic Surfactants Containing Phenylalanine and Tryptophan: Evaluation of Antifungal Activity, Biofilm Eradication, Cytotoxicity, and Ecotoxicity” (Journal of Xenobiotics, 2025)
